Measured values from PubChem BioAssay AID1963432 (Molecular Pharmacology Branch, DTP, NCI, 2024).
“And” between values parts separate entries of the source, which are not always exact repeats. Identical values can stand only once.

Tested on: SYO-1 complex spheroid growth, percent test/control
Experiment: Anticancer human tumor SYO-1 cell line growth inhibition [Asc];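 note: compound exposure lasted 7 days after spheroids grew 3 days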;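 for viability, T/C: 100% = DMSO vehicle control viability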
Details: for viability, T/C: stronger effect = lower value
Experimental: Multicellular complex tumor spheroid response to apoptosis pathway targeting inhibitors Alrizomadlin, Pelcitoclax, and Dasminapant in combination with a variety of drugs and investigational agents in selected tumor cell lines
The MDM2 inhibitor alrizomadlin, the Bcl-2/Bcl-xL inhibitor pelcitoclax, and the IAPs inhibitor dasminapant were evaluated both individually and in combination with standard of care and investigational anticancer small molecules within a complex spheroid model of solid tumors. . Complex spheroids include a stromal component modeled by human endothelial cells (HUVEC) and fibroblasts modeled by human mesenchymal stem cells (MSCs). The concentration ranges selected for each drug and investigational agent were based upon clinically achievable concentrations if the clinical Cmax of the agent was known.
Compounds. The drugs and investigational agents: alrizomadlin (APG-115; NSC831270), pelcitoclax (APG-1252; NSC835773), dasminapant (APG-1387;NSC834197), TAK-243 (NSC785004), copanlisib (NSC809693), olaparib (NSC753686), talazoparib (NSC767125), cobimetinib (NSC 768068), eltanexor (KPT-8602, NSC 794443), abemaciclib (NSC 768073), sotorasib (NSC818433), adagrasib (NSC 831453), MRTX-1133 (NSC 836407), Iadademestat (ORY1001, NSC 806812), and RMC-4630 (NSC839698), were obtained from the NCI Developmental Therapeutics Program Chemical Repository. The FDA-approved anticancer drug set is available from the Developmental Therapeutics Program at https://dtp.cancer.gov/organization/dscb/obtaining/available plates.htm. […] The stock solutions were prepared in dimethyl sulfoxide (DMSO, Sigma-Aldrich, St. Louis, MO, cat. D2650) at 800-fold the tested concentration and stored at -70 degrees C prior to their use. All drugs and investigational agents were tested over a range starting from a high concentration at or near the clinical Cmax and decreasing in half-log increments. If the clinical Cmax for an agent had not been determined, the highest concentration tested was 10 microM.
The patient-derived cancer (PDC) cell lines include five colon adenocarcinomas: 186277-243-T-J2-PDC, 616215-338-R-J1-PDC, 439559-082-T-J2-PDC, 463943-066-T-J2-PDC, and 519858-162-T-J1-PDC; three pancreatic carcinomas: 323965-272-R-J2-PDC, 521955-158-R6-J3-PDC, and 521955-158-R2-J5-PDC; two uterine sarcomas: 327498-152-R-J2-PDC and 993429-296-R-J1-PDC; two rhabdomyosarcomas: 755483-174-R-J1-PDC and 772245-204-R-J1-PDC; two soft tissue sarcomas: 126254-015-R-J1-PDC and 494315-158-R-J1-PDC; two malignant fibrous histiocytomas: 317291-083-R-J1-PDC and 596521-263-R-J1-PDC; two breast carcinomas: 171881-019-R-J1-PDC and 885512-296-R-J2-PDC; and one ovarian carcinoma: 6556581-035-R-J-PDC were obtained from the NCI PDMR, (https://pdmr.cancer.gov). The established cell lines HSSY-2 synovial sarcoma (RRID:CVCL 8719), SYO-1 synovial sarcoma (RRID:CVCL_7146), MPNST malignant peripheral neural sheath tumor were obtained from the Sloan Kettering Institute. The following established cell lines were purchased from the American Type Culture Collection (ATCC, Manassas, VA), Sor the received from the NCI repository:, PANC-1 pancreatic carcinoma (CRL-1469, RRID:CVCL_0480), OVCAR-5 ovarian carcinoma (RRID:CVCL_1628), OVCAR-8 ovarian carcinoma (RRID:CVCL_1629), , MCF-7 breast carcinoma (CRL-12584, RRID:CVCL_0031), MDA-MB-231 breast carcinoma (CRL-12532, RRID:CVCL_0062), NCI-H1876 small cell lung carcinoma (CRL-5902, RRID:CVCL_1503), NCI-H510A small cell lung carcinoma (HTB-184, RRID:CVCL_1565), NCI-H1417 (CRL-5869, RRID:CVCL_1469), and NCI-H196 small cell lung carcinoma (CRL-5823, RRID:CVCL_1509). Dr. Peter Houghton (Greehey Children's Cancer Research Institute, University of Texas Health Science Center, San Antonio, TX) provided Rh-18 rhabdomyosarcoma (RRID:CVCL_1659). Pooled donor human umbilical vein endothelial cells (HUVEC, Lonza, cat. CC-2519) and human mesenchymal stem cells (hMSC, Lonza, cat. PT-2501) were purchased from Lonza (Walkersville, MD).
Cell Culture. […]

[1] = curve of first compound, second compound 0.0316 µM
[2] = curve of first compound, second compound 0.1 µM
[3] = curve of first compound, second compound 0.316 µM
[4] = curve of first compound, second compound 1 µM
[5] = second compound 0.0316 µM, first compound 0.0316 µM
[6] = second compound 0.0316 µM, first compound 0.1 µM
[7] = second compound 0.0316 µM, first compound 0.316 µM
[8] = second compound 0.0316 µM, first compound 1 µM
[9] = second compound 0.1 µM, first compound 0.0316 µM
[10] = second compound 0.1 µM, first compound 0.1 µM
[11] = second compound 0.1 µM, first compound 0.316 µM
[12] = second compound 0.1 µM, first compound 1 µM
[13] = second compound 0.316 µM, first compound 0.0316 µM
[14] = second compound 0.316 µM, first compound 0.1 µM
[15] = second compound 0.316 µM, first compound 0.316 µM
[16] = second compound 0.316 µM, first compound 1 µM
[17] = second compound 1 µM, first compound 0.0316 µM
[18] = second compound 1 µM, first compound 0.1 µM
[19] = second compound 1 µM, first compound 0.316 µM
[20] = second compound 1 µM, first compound 1 µM

## CCN1C(C(=O)NC23CCC(C(=O)O)(CC2)CC3)C(c2cccc(Cl)c2F)C2(C(=O)Nc3cc(Cl)ccc32)C12CCCCC2 (stereo unspecified)
Compound 0.00949 µM
  viability, T/C: 103% [middle of 9 runs]
Compound 0.03 µM
  viability, T/C: 99.3% [middle of 9 runs]
Compound 0.3 µM
  viability, T/C: 25.9% [middle of 9 runs]
Compound 0.949 µM
  viability, T/C: 3.45% [middle of 9 runs]
Compound 3 µM
  viability, T/C: 1.23% [middle of 9 runs]
Compound alone, run of 11/07/2022
  IC50: 189 nM [middle of 7 runs]
Curve of compound
  IC50: 142 nM and 178 nM

## C=C(F)C(=O)N1CCN(c2nc(OCC3CCCN3C)nc3c2CCN(c2cccc4cccc(Cl)c24)C3)CC1CC#N (stereo unspecified) + Cc1c(S(C)(=O)=O)c(-c2cc(F)cc(N3CCN(c4ccc(NS(=O)(=O)c5ccc(NC(CCN6CCC(C(=O)OCCCP(=O)(O)O)CC6)CSc6ccccc6)c(S(=O)(=O)C(F)(F)F)c5)cc4)CC3)c2)c(-c2ccc(Cl)cc2)n1C(C)C
[1]
  IC50: 4950 nM
[2]
  IC50: 3360 nM
[3]
  IC50: 1740 nM
[4]
  IC50: 1730 nM
Curve of first compound, second compound 3.16 µM
  IC50: 1670 nM
Curve of first compound, second compound 10 µM
  IC50: 1590 nM
[5]
  viability, T/C: 97.2%
[6]
  viability, T/C: 87.6%
[7]
  viability, T/C: 97.8%
[8]
  viability, T/C: 101%
Second compound 0.0316 µM, first compound 3.16 µM
  viability, T/C: 81.6%
Second compound 0.0316 µM, first compound 10 µM
  viability, T/C: 0.62%
[9]
  viability, T/C: 92.7%
[10]
  viability, T/C: 96.7%
[11]
  viability, T/C: 96.3%
[12]
  viability, T/C: 98.3%
Second compound 0.1 µM, first compound 3.16 µM
  viability, T/C: 52.8%
Second compound 0.1 µM, first compound 10 µM
  viability, T/C: 0.77%
[13]
  viability, T/C: 98.8%
[14]
  viability, T/C: 97%
[15]
  viability, T/C: 97.3%
[16]
  viability, T/C: 95.1%
Second compound 0.316 µM, first compound 3.16 µM
  viability, T/C: 1.32%
Second compound 0.316 µM, first compound 10 µM
  viability, T/C: 0.42%
[17]
  viability, T/C: 89.6%
[18]
  viability, T/C: 89.7%
[19]
  viability, T/C: 88.4%
[20]
  viability, T/C: 109%
Second compound 1 µM, first compound 3.16 µM
  viability, T/C: 0.8%
Second compound 1 µM, first compound 10 µM
  viability, T/C: 1.26%
Second compound 3.16 µM, first compound 0.0316 µM
  viability, T/C: 92.9%
Second compound 3.16 µM, first compound 0.1 µM
  viability, T/C: 78.6%
Second compound 3.16 µM, first compound 0.316 µM
  viability, T/C: 87.8%
Second compound 3.16 µM, first compound 1 µM
  viability, T/C: 97.6%
Second compound 3.16 µM, first compound 3.16 µM
  viability, T/C: 0.94%
Second compound 3.16 µM, first compound 10 µM
  viability, T/C: 1.06%
Second compound 10 µM, first compound 0.0316 µM
  viability, T/C: 89.5%
Second compound 10 µM, first compound 0.1 µM
  viability, T/C: 78.9%
Second compound 10 µM, first compound 0.316 µM
  viability, T/C: 71.5%
Second compound 10 µM, first compound 1 µM
  viability, T/C: 91.6%
Second compound 10 µM, first compound 3.16 µM
  viability, T/C: 0.9%
Second compound 10 µM, first compound 10 µM
  viability, T/C: 0.74%

## COc1c(OCCCN2CCOCC2)ccc2c3n(c(=NC(=O)c4cnc(N)nc4)nc12)CCN3 + CNC(C)C(=O)NC1CN(S(=O)(=O)c2cccc(S(=O)(=O)N3CCC4CCC(C(=O)NC(c5ccccc5)c5ccccc5)N4C(=O)C(NC(=O)C(C)NC)C3)c2)CCC2CCC(C(=O)NC(c3ccccc3)c3ccccc3)N2C1=O
Curve of first compound, second compound 0.01 µM
  IC50: > 1000 nM
[1]
  IC50: > 1000 nM
[2]
  IC50: > 1000 nM
[3]
  IC50: > 1000 nM
[4]
  IC50: > 1000 nM
Second compound 0.01 µM, first compound 0.00316 µM
  viability, T/C: 106%
Second compound 0.01 µM, first compound 0.01 µM
  viability, T/C: 109%
Second compound 0.01 µM, first compound 0.0316 µM
  viability, T/C: 116%
Second compound 0.01 µM, first compound 0.1 µM
  viability, T/C: 106%
Second compound 0.01 µM, first compound 0.316 µM
  viability, T/C: 96%
Second compound 0.01 µM, first compound 1 µM
  viability, T/C: 68.3%
Second compound 0.0316 µM, first compound 0.00316 µM
  viability, T/C: 113%
Second compound 0.0316 µM, first compound 0.01 µM
  viability, T/C: 126%
[5]
  viability, T/C: 118%
[6]
  viability, T/C: 110%
[7]
  viability, T/C: 98.2%
[8]
  viability, T/C: 72.9%
Second compound 0.1 µM, first compound 0.00316 µM
  viability, T/C: 107%
Second compound 0.1 µM, first compound 0.01 µM
  viability, T/C: 119%
[9]
  viability, T/C: 118%
[10]
  viability, T/C: 107%
[11]
  viability, T/C: 102%
[12]
  viability, T/C: 68.7%
Second compound 0.316 µM, first compound 0.00316 µM
  viability, T/C: 111%
Second compound 0.316 µM, first compound 0.01 µM
  viability, T/C: 122%
[13]
  viability, T/C: 116%
[14]
  viability, T/C: 105%
[15]
  viability, T/C: 96.1%
[16]
  viability, T/C: 69.2%
Second compound 1 µM, first compound 0.00316 µM
  viability, T/C: 114%
Second compound 1 µM, first compound 0.01 µM
  viability, T/C: 124%
[17]
  viability, T/C: 117%
[18]
  viability, T/C: 113%
[19]
  viability, T/C: 95.1%
[20]
  viability, T/C: 73.3%

## CCN1CCN(Cc2ccc(Nc3ncc(F)c(-c4cc(F)c5nc(C)n(C(C)C)c5c4)n3)nc2)CC1
Compound 0.00316 µM
  viability, T/C: 103% (2×) and 101%
Compound 0.01 µM
  viability, T/C: 99.9% and 103% and 110%
Compound 0.0316 µM
  viability, T/C: 107% and 106% and 109%
Compound 0.1 µM
  viability, T/C: 114% and 118% and 115%
Compound 0.316 µM
  viability, T/C: 115% and 128% and 112%
Compound 1 µM
  viability, T/C: 106% and 111% and 112%
Curve of compound
  IC50: > 1000 nM
